Assay results reported in BindingDB's records for doi:10.1021/jm00163a034 (Eisai, 1990).
Square brackets hold non-standard residues; d marks the D form. Peptide text beside a SMILES is read from it. Phe(4-NO2) = N[CH](Cc1ccc([N+](=O)[O-])cc1)C(=O)O; NMeY = CN[CH](Cc1ccc(O)cc1)C(=O)O; Sar = CNCC(=O)O

Key:
[1] = Evaluated for inhibitory activity against Opioid receptor kappa 1 of rabbit vas deferens (RVD)
[2] = Binding affinities against Opioid receptor kappa 1 of guinea pig brain membrane using [3H]U69,593 as the radioligand using competition binding assays.
[3] = Binding affinities against Opioid receptor delta 1 of guinea pig brain membrane using [3H]DPDPE as the radioligand using competition binding assays.

Row | Compound | IC50 [1] | Ki [2] | Ki [3]
1 | CN[C@@H](Cc1ccc(O)cc1)C(=O)NCC(=O)NNC(=O)N[C@@H](Cc1ccccc1)C(=O)N[C@@H](CC(C)C)C(=O)N[C@@H](CCCNC(=N)N)C(=O)N[C@@H](CCCNC(=N)N)C(=O)N[C@H](CC(C)C)C(N)=O | 152 nM | – | –
2 | CC[C@H](C)[C@H](NC(=O)[C@H](CCCNC(=N)N)NC(=O)[C@H](CCCNC(=N)N)NC(=O)[C@H](CC(C)C)NC(=O)[C@H](Cc1ccccc1)NC(=O)CNC(=O)CNC(=O)[C@@H](N)Cc1ccc(O)cc1)C(N)=O [2-[2-(2-{2-[2-(2-{2-[2-Amino-3-(4-hydroxy-phenyl)-propionylamino]-acetylamino}-acetylamino)-3-phenyl-propionylamino]-4-methyl-pentanoylamino}-5-guanidino-pentanoylamino)-5-guanidino-pentanoylamino]-3-methyl-pentanoic acid amide] | 17 nM | 1.2 nM | 24 nM
3 | CCNC(=O)[C@@H](CC(C)C)NC(=O)[C@H](CCCNC(=N)N)N(C)C(=O)[C@H](CCCNC(=N)N)NC(=O)[C@H](CC(C)C)NC(=O)[C@H](Cc1ccccc1)NC(=O)CNC(=O)CNC(=O)[C@H](Cc1ccc(O)cc1)NC [2-[2-(2-{2-[3-(4-Hydroxy-phenyl)-2-methylamino-propionylamino]-acetylamino}-acetylamino)-3-phenyl-propionylamino]-4-methyl-pentanoic acid (1-{[1-(1-ethylcarbamoyl-3-methyl-butylcarbamoyl)-4-guanidino-butyl]-methyl-carbamoyl}-4-guanidino-butyl)-amide] | 2.6 nM | 1.9 nM | 27 nM
4 | CNC(Cc1ccc(O)cc1)C(=O)NCC(=O)NCC(=O)NC(Cc1ccc([N+](=O)[O-])cc1)C(=O)NC(CC(C)C)C(=O)NC(CCCNC(=N)N)C(=O)NC(CCCNC(=N)N)C(=O)NC(CC(C)C)C(N)=O (centres undefined) [2-[5-Guanidino-2-(5-guanidino-2-{2-[2-(2-{2-[3-(4-hydroxy-phenyl)-2-methylamino-propionylamino]-acetylamino}-acetylamino)-3-(4-nitro-phenyl)-propionylamino]-4-methyl-pentanoylamino}-pentanoylamino)-pentanoylamino]-4-methyl-pentanoic acid amide] (H-[NMeY]GG[Phe(4-NO2)]LRRL-NH2; configuration not given here) | – | 0.77 nM | 29 nM
5 | CN[C@@H](Cc1ccc(O)cc1)C(=O)NCC(=O)NCC(=O)N[C@@H](Cc1ccccc1)C(=O)N[C@H](C)C(=O)N[C@@H](CCCNC(=N)N)C(=O)N[C@@H](CCCNC(=N)N)C(=O)N[C@H](CC(C)C)C(N)=O [2-[5-Guanidino-2-(5-guanidino-2-{2-[2-(2-{2-[3-(4-hydroxy-phenyl)-2-methylamino-propionylamino]-acetylamino}-acetylamino)-3-phenyl-propionylamino]-propionylamino}-pentanoylamino)-pentanoylamino]-4-methyl-pentanoic acid amide] | 13000 nM | – | –
6 | CC(C)C[C@H](NC(=O)[C@H](CCCNC(=N)N)NC(=O)[C@H](CCCNC(=N)N)NC(=O)[C@H](CC(C)C)NC(=O)[C@H](Cc1ccccc1)NC(=O)CNC(=O)CN(C)C(=O)[C@@H](N)Cc1ccc(O)cc1)C(N)=O [2-{2-[2-(2-{2-[2-(2-{[2-Amino-3-(4-hydroxy-phenyl)-propionyl]-methyl-amino}-acetylamino)-acetylamino]-3-phenyl-propionylamino}-4-methyl-pentanoylamino)-5-guanidino-pentanoylamino]-5-guanidino-pentanoylamino}-4-methyl-pentanoic acid amide] (H-Y[Sar]GFLRRL-NH2) | 738 nM | – | –
7 | CN[C@@H](Cc1ccc(O)cc1)C(=O)NCC(=O)NCC(=O)N[C@@H](Cc1ccccc1)C(=O)N(C)[C@@H](CC(C)C)C(=O)N[C@@H](CCCNC(=N)N)C(=O)N[C@@H](CCCNC(=N)N)C(=O)N[C@H](CC(C)C)C(N)=O [2-{5-Guanidino-2-[5-guanidino-2-(2-{[2-(2-{2-[3-(4-hydroxy-phenyl)-2-methylamino-propionylamino]-acetylamino}-acetylamino)-3-phenyl-propionyl]-methyl-amino}-4-methyl-pentanoylamino)-pentanoylamino]-pentanoylamino}-4-methyl-pentanoic acid amide] | 189 nM | – | –
8 | CN[C@@H](Cc1ccc(O)cc1)C(=O)NCC(=O)NCC(=O)N[C@@H](Cc1ccccc1)C(=O)N[C@@H](CC(C)C)C(=O)N(C)[C@@H](CCCN=C(N)N)C(=O)N[C@@H](CCCN=C(N)N)C(=O)N[C@H](CC(C)C)C(N)=O [2-{5-Guanidino-2-[5-guanidino-2-({2-[2-(2-{2-[3-(4-hydroxy-phenyl)-2-methylamino-propionylamino]-acetylamino}-acetylamino)-3-phenyl-propionylamino]-4-methyl-pentanoyl}-methyl-amino)-pentanoylamino]-pentanoylamino}-4-methyl-pentanoic acid amide] | 1.1 nM | – | –
9 | CCNC(=O)[C@@H](CC(C)C)NC(=O)[C@H](CCCN=C(N)N)N(C)C(=O)[C@H](CCCN=C(N)N)NC(=O)[C@H](CC(C)C)NC(=O)[C@H](Cc1ccc([N+](=O)[O-])cc1)NC(=O)CNC(=O)CNC(=O)[C@H](Cc1ccc(O)cc1)NC [2-{5-Guanidino-2-[(5-guanidino-2-{2-[2-(2-{2-[3-(4-hydroxy-phenyl)-2-methylamino-propionylamino]-acetylamino}-acetylamino)-3-(4-nitro-phenyl)-propionylamino]-4-methyl-pentanoylamino}-pentanoyl)-methyl-amino]-pentanoylamino}-4-methyl-pentanoic acidN-ethyl amide] | – | 3.9 nM | 18 nM
10 | CN[C@@H](Cc1ccc(O)cc1)C(=O)NCC(=O)NCC(=O)N[C@@H](Cc1ccccc1)C(=O)N[C@@H](CC(C)C)C(=O)N[C@@H](CCCNC(=N)N)C(=O)N(C)[C@@H](CCCNC(=N)N)C(=O)N[C@H](CC(C)C)C(N)=O [2-{5-Guanidino-2-[(5-guanidino-2-{2-[2-(2-{2-[3-(4-hydroxy-phenyl)-2-methylamino-propionylamino]-acetylamino}-acetylamino)-3-phenyl-propionylamino]-4-methyl-pentanoylamino}-pentanoyl)-methyl-amino]-pentanoylamino}-4-methyl-pentanoic acid amide] | – | 1.4 nM | 54 nM
11 | CCNC(=O)[C@@H](CC(C)C)NC(=O)[C@H](CCCN=C(N)N)N(C)C(=O)[C@H](CCCN=C(N)N)NC(=O)[C@@H]1CSSC[C@@H](NC(=O)[C@@H](N)Cc2ccc(O)cc2)C(=O)NCC(=O)N[C@@H](Cc2ccccc2)C(=O)N1 [13-[2-Amino-3-(4-hydroxy-phenyl)-propionylamino]-7-benzyl-6,9,12-trioxo-1,2-dithia-5,8,11-triaza-cyclotetradecane-4-carboxylic acid (1-{[1-(1-ethylcarbamoyl-3-methyl-butylcarbamoyl)-4-guanidino-butyl]-methyl-carbamoyl}-4-guanidino-butyl)-amide] | – | 3 nM | 1.6 nM
